Assay [1] has as its system SCC-15 tumours. As to the kind of experiment: SCC-15 tumours in BALB/c Foxn1^nu xenogeneic mouse model, intratumoural Compound 1 and external beam irradiation. It is filed as in vivo. The following applies: for Median Survival: Xenogeneic Model. On the procedure: (§1) Subjects were ear tagged for identification.
(§2) Adequate positioning was ensured with the irradiator (Gammacel 40 Extractor) by sedating each mouse with a combination solution of Ketamine (80 mg/kg of 8 mg/mL solution, Ceva, NSW, AU) and Midazolam (4 mg/kg of 0.4 mg/mL solution, Sandoz, Hozkirchen, Germany) via intraperitoneal injection. Mice were double contained during transfer to and from the irradiator. During irradiation, mice were restrained with lead shielding to prevent exposure to sites other than the flanks where the tumours were located.
(§3) Tumour volume was recorded as above.

Another assay deals with MC38 tumours. As to the kind of experiment: MC38 tumours in C57BL/6 syngeneic mouse model, intratumoural Compound 1 and external beam irradiation. It is filed as in vivo. Conditions: for Median Survival: Syngeneic Model. The protocol: The MC38 cell line is a murine colonic adenocarcinoma cell line derived from the C57BL/6 mouse (Kerafast, ENH204).
as §1
as §2, with “located. […] On completion of treatment, mice were warmed with a heating blanket, placed on their side, and observed until ambulant.” for “located.”
as §3

In another assay the test system is LLC tumours. As to the kind of experiment: Lewis Lung Carcinoma (LLC) tumours in C57BL/6 mice, intratumoural Compound 1 and intraperitoneal doxorubicin. It is filed as in vivo, mouse.
In assay [2] the test system is SCC-15 tumours. Conditions: Xenogeneic Model.
Method: (§4) Prior to inoculation of subject mice, the cancer cells were seeded to T175 tissue culture flasks (Thermo Scientific) to increase cell numbers. Once 70-80% confluent, cells were trypsinized and resuspended in RPMI-1640 media for harvesting and cell count using a haemocytometer. The cell volume was centrifuged and the pellet reconstituted in RPMI-1640 media to a volume sufficient for the number of inoculations required at 100 μL per injection with two sites per mouse subject. The cell suspension was kept on ice and transferred to the animal facility for injection into the subjects.
The BALB/c Foxn1^nu mice were obtained from the Animal Resource Centre, Western Australia. The C3H/HeNCr mice were bred at the QIMR Animal Facility.
C3H/HeNCr mice were shaved (Wahl, Illinois, USA) one day before inoculation. Whilst restrained subjects were inoculated on the hind quarter bilaterally by injecting 100 μL of the appropriate cell suspension into the subcutaneous space with a Terumo® (Tokyo, Japan) 27G×½″ needle. Subjects were ear tagged for identification. Following inoculation, mice were monitored twice weekly for tumour development and well-being and once tumours developed, the subjects were monitored daily.
(§5) A cohort of thirty BALB/c Foxn1^nu and twenty-one C3H/HeNCr mice, each with two tumours per mouse were divided into six experimental groups as set out in Table 2.
(§6) Weight was recorded for each subject prior to and post-treatment, and at the time of culling. The width and length of each tumour was measured using 150 mm digital Vernier callipers (Kinchrome, Qld, AU) and individual tumour volume (mm^3) calculated using the formula:
IP injections were performed by first sterilizing the anterior abdominal wall of the subject with an alcohol swab before the dorsal skin of the subject was scruffed and the subject inverted with head down. A 29 G needle with the bevel upwards is used to inject into the lower right abdominal quadrant. […]
Tumour volume was recorded as above. […]
Data was analysed with Microsoft Excel and Prism 7 to calculate average tumour volumes and standard deviations (SD). […]
For a further assay, the system named is A431 cells. The following applies: for Combination Index at IC50, Irradiation: with irradiation.
Another assay deals with SCC-15 cells. Conditions: for Combination Index at IC50, Irradiation: with irradiation; for relationship by Chou-Talalay combination index method: Compound 1 with irradiation.
The test system of another assay is UV-13-1 tumours. Conditions: for Median Survival: Syngeneic Model.
The next assay relates to B16-F10-OVA tumours. As to the kind of experiment: B16-F10-OVA mouse melanoma tumours in C57BL/6 mice, intratumoural Compound 1 and intraperitoneal doxorubicin.
The mark [3] stands for this setting: 5 Gy irradiation + IT 7.5 μg Compound 1.
Setting [4] is: 10 Gy irradiation + IT 7.5 μg Compound 1.
[5] abbreviates: syngeneic model, 5 Gy irradiation + 7.5 μg IT Compound 1.
Where [6] appears, read: syngeneic model, 10 Gy irradiation + 7.5 μg IT Compound 1.
Setting [7] is: 5 μg or 10 μg Compound 1, p<0.0001.
The mark [8] stands for this setting: IP N/Saline + IT 5 μg Compound 1.
Setting [9] is: IP N/Saline + IT 10 μg Compound 1.
The mark [10] stands for this setting: IP cisplatin 2.5 mg/kg + IT 40% PG.
[11] abbreviates: intraperitoneal doxorubicin 3 mg/kg + intralesional 40% PG/30 mM acetate.

Where two headings read alike, the source gives them in different places.

Method for A431 cells: (§7) Cells were seeded at 3000 cells/well in 100 μL of medium in flat bottom 96 well cell culture plates (Corning Incorporated, New York, USA). Cells were incubated for 24 hr to ensure plate adherence prior to treatment.
(§8) One in two dilutions were then performed down the plate leaving the last row as an untreated control.
(§9) Each cell line was treated with each agent in triplicate with data being averaged across the three trials.
(§10) For single agent experiments, wells included no treatment and ethanol treatment controls. Following treatment, cells were incubated for 4 hours prior to washing with PBS and replacement of medium.
(§11) Following incubation of treated cells for 5-7 days, cell survival was determined using a sulforhodamine B (SRB) proliferation assay. This assay quantitatively assesses the degree of protein staining as a surrogate marker for cellular growth. Cells were washed with PBS and subsequently fixed with methylated spirits (Chem Supply, South Australia) for at least five minutes. Following fixation, the methylated spirits was removed and cells again washed gently with water prior to staining with 50 μL/well of 0.4% SRB solution (Sigma Aldrich) in 1% acetic acid for sixty minutes. This solution was tipped off and cells quickly washed twice with 1% acetic acid. The assay was completed with administration of 100 μL/well of 10 mM Tris base (unbuffered, pH >9, Invitrogen). Absorbance was measured on an enzyme-linked immunosorbent assay (ELISA) reader (VERSA max microplate reader, Molecular Devices, California, USA) at 564 nm and a five second agitation. Cell survival was graphed as a percentage of control well absorbance against dose.
(§12) Analysis was performed using the software program Combusyn.
(§13) As for the single agent experimentation, the cell lines were maintained in culture before their eventual transfer to 96-well plates. […] Cell survival was determined relative to no-treatment controls after 7 days of incubation using SRB assays.
Method for B16-F10-OVA tumours: (§14) B16-F10-OVA (B16-F10 mouse melanoma cell line overexpressing chicken ovalbumin) were cultured in RPMI-1640 supplemented with 10% FCS (complete medium) and 3 mM HEPES. LLC (Lewis Lung Carcinoma) cells were cultured in DMEM (Gibco) supplemented with 10% FCS. Both cell lines were incubated at 37° C., 5% CO2 in a humidified incubator.
(§15) C57BL/6 mice were purchased from the Animal Resources Centre (ARC), Murdoch, Western Australia. […] All mice were housed in a specific pathogen free (SPF) facility, with 12 hours light/dark cycle and continual access to food and water.
C57BL/6 mice (6-7 weeks old) were injected subcutaneously (s.c.) on both flanks with B16-F10-OVA mouse melanoma cells (2×10^5 cells per site in 50 μl) or LLC mouse lung cancer cells (5×10^5 cells per site in 50 μl). Tumours were allowed to develop to approximately 75-100 mm^3. Mice were then treated intra-peritoneally with doxorubicin in saline (3 mg/kg; 60 μg/dose, saline for vehicle). […] Treatment with the chemotherapy agent was repeated after 7 and 14 days. For the B16-F10-OVA model, 5 mice per group (10 tumours) were used in duplicate experiments (total of 10 mice per group, 20 tumours in total from both experiments). For the LLC tumour model, 5 mice per group were used in a single experiment (10 tumours).
Volumes were recorded using digital calipers and expressed as mm^3 according to the formula A×b×b×0.5 where A=length and b=measured breadth of the tumour. Mice were also assessed for clinical signs of distress according to an approved clinical score sheet during the experiment. The experiment ceased when an unacceptable clinical score (>6) was reached, or the cumulative tumour burden of the mouse exceeded 1,000 mm^3. […] Mice were humanely euthanized by CO2 asphyxiation at the end of the experiment.
Method for LLC tumours: as §14, §15
C57BL/6 mice (6-7 weeks old) were injected subcutaneously (s.c.) on both flanks with B16-F10-OVA mouse melanoma cells (2×10^5 cells per site in 50 μl) or LLC mouse lung cancer cells (5×10^5 cells per site in 50 μl). Tumours were allowed to develop to approximately 75-100 mm^3. Mice were then treated intra-peritoneally with doxorubicin in saline (3 mg/kg; 60 μg/dose, saline for vehicle). […] Treatment with the chemotherapy agent was repeated after 7 and 14 days. […]
Volumes were recorded using digital calipers and expressed as mm^3 according to the formula A×b×b×0.5 where A=length and b=measured breadth of the tumour. Mice were also assessed for clinical signs of distress according to an approved clinical score sheet during the experiment. […]
Method for SCC-15 cells: as §7, §8, §9, §10, §11, §12, §13
Method for UV-13-1 tumours: as §4
C3H/HeNCr mice were shaved (Wahl, Illinois, USA) one day before inoculation. Whilst restrained subjects were inoculated on the hind quarter bilaterally by injecting 100 μL of the appropriate cell suspension into the subcutaneous space with a Terumo® (Tokyo, Japan) 27G×½″ needle. […] Following inoculation, mice were monitored twice weekly for tumour development and well-being and once tumours developed, the subjects were monitored daily.
as §5, §6
IP injections were performed by first sterilizing the anterior abdominal wall of the subject with an alcohol swab before the dorsal skin of the subject was scruffed and the subject inverted with head down. A 29 G needle with the bevel upwards is used to inject into the lower right abdominal quadrant.
On reaching a volume of 70-100 mm^3, tumours of the test subjects were injected IT with 50 μL of either 5 μg or 10 μg of Compound 1 or for control subjects 50 μL of 40% propylene glycol (PG).
The subjects were euthanized by CO2 inhalation when total tumour burden reached 1000 mm^3 per mouse, if ill, and on completion of the experiment.
Data was analysed with Microsoft Excel and Prism 7 to calculate average tumour volumes and standard deviations (SD). Individual and averaged tumour volumes and Kaplan-Meier survival curves were graphed relative to time of treatment.
C3H/HeNCr mouse model inoculated with UV-13-1 tumours is a syngeneic model where the mouse is immunocompetent and the influence of the immune system on treatment may be assessed. These mice were not culled at 60 days but were periodically (weekly) monitored up to 200 days for recurrence.

On to `C/C=C(\C)C(=O)O[C@@H]1[C@@H](C)[C@@]2(O)[C@H]([C@@H]3C(C)(C)[C@]13OC(=O)[C@@H](C)CC)[C@@H]1O[C@]1(CO)[C@@H](O)[C@]1(O)C(=O)C(C)=C[C@H]12` [Compound 1, 12-tigloyl-13-(2-methylbutanoyl)-6,7-epoxy-4,5,9,12,13,20-hexahydroxy-1-tiglien-3-one], for which the “Median Survival” value was found to be 22 days in the assay with SCC-15 tumours [1] (0 Gy + IT 7.5 μg Compound 1); 32 days in the assay with SCC-15 tumours [1] (setting [3]); 166 days in the assay on SCC-15 tumours [1] (setting [4]); 13 days in the assay with MC38 tumours (0 Gy + IT 7.5 μg Compound 1); 31 days in the assay on MC38 tumours (setting [3]); 47 days in the assay on MC38 tumours (setting [4]). For the same compound, the “Median Survival” value amounted to 11 days with SCC-15 tumours [2] (setting [8]), 13 days with SCC-15 tumours [2] (setting [9]), 16.5 days in the assay on UV-13-1 tumours (setting [8]) and 23.5 days in the assay with UV-13-1 tumours (setting [9]). The cure rate with SCC-15 tumours [1] (xenogeneic model, 7.5 μg IT Compound 1 alone) is 70%; in the assay on MC38 tumours (syngeneic model, 7.5 μg IT Compound 1 alone), 70%. Moreover, the “survival rate at 200 days” value in the assay on SCC-15 tumours [1] (xenogeneic model, 5 Gy irradiation + 7.5 μg IT Compound 1) is 20%; in the assay on SCC-15 tumours [1] (xenogeneic model, 10 Gy irradiation + 7.5 μg IT Compound 1) it was 50%. The “cure rate (proportion of tumours responding completely)” value in the assay with SCC-15 tumours [1] (xenogeneic model, Compound 1 and 5 Gy irradiation) amounted to 80%; in the assay with SCC-15 tumours [1] (xenogeneic model, Compound 1 and 10 Gy irradiation), 70%; in the assay with MC38 tumours (syngeneic model, Compound 1 and 5 Gy irradiation) it was 100%; in the assay with MC38 tumours (syngeneic model, Compound 1 and 10 Gy irradiation), 100%. Also, the “tumour size response compared to other combinations” value in the assay with SCC-15 tumours [1] (xenogeneic model, Compound 1 combined with irradiation) was “significant and durable reduction in tumour size”. The “duration of treatment response” value came to 11 days in the assay with SCC-15 tumours [1] (xenogeneic model, Compound 1 monotherapy); 51.5 days with SCC-15 tumours [1] (xenogeneic model, Compound 1 with 5 Gy irradiation); 111 days in the assay with SCC-15 tumours [1] (xenogeneic model, Compound 1 with 10 Gy irradiation); 6.2 days in the assay on MC38 tumours (syngeneic model, Compound 1 monotherapy); 64.6 days with MC38 tumours (syngeneic model, Compound 1 with 5 Gy irradiation); 65.9 days in the assay with MC38 tumours (syngeneic model, Compound 1 with 10 Gy irradiation). Also, the “improvement of duration of treatment response over monotherapy” value with SCC-15 tumours [1] (xenogeneic model, Compound 1 with irradiation, either 5 Gy or 10 Gy) is recorded as “at least 4.6 ×”; with MC38 tumours (syngeneic model, Compound 1 with irradiation, either 5 Gy or 10 Gy), ≥ 8.7 ×. Also, the “survival at experiment end” value with MC38 tumours (setting [5]) and in the assay on MC38 tumours (setting [6]) was 20% each time. Further, the “tumours that remained cured at 200 days following treatment” value with MC38 tumours (setting [5]) and in the assay on MC38 tumours (setting [6]) was “two” in each case. In addition, the “tumour response (individual and average tumour volumes)” value in the assay on MC38 tumours (syngeneic model, combinations of Compound 1 and irradiation) was “considerably improved tumour response”. Also, the “tumour growth and overall survival compared to vehicle alone” value is “slowed tumour growth and prolonged overall survival” in the assay with LLC tumours (setting [7]); “slowed tumour growth and prolonged overall survival” in the assay with B16-F10-OVA tumours (setting [7]). Also, the “Combination Index at IC50, Irradiation” value in the assay on A431 cells (Compound 1 concentration 10 μM) came out at 0.33; with A431 cells (Compound 1 concentration 50 μM) it was 0.41; in the assay on A431 cells (Compound 1 concentration 100 μM), 0.12; in the assay with A431 cells (Compound 1 concentration 200 μM), 0.08; in the assay on SCC-15 cells (Compound 1 concentration 2 μM), 0.15; in the assay on SCC-15 cells (Compound 1 concentration 20 μM) it was 2.1. For the same compound, the “Combination Index at IC50, Irradiation” value is on record as 1.75 with SCC-15 cells (Compound 1 concentration 40 μM) and 1.34 with SCC-15 cells (Compound 1 concentration 60 μM). The “cell death compared to Compound 1 alone” value in the assay on A431 cells (Compound 1 with any concentration of irradiation) is on record as “significant increase in cell death”. Further, the “relationship by Chou-Talalay combination index method” value is “synergistic” in the assay on A431 cells (Compound 1 with irradiation), “synergistic” in the assay with SCC-15 cells (at low concentrations) and “consistent with antagonism” with SCC-15 cells (some combination indices (CI >1)). The cell survival result in the assay on SCC-15 cells (exposure to Compound 1 and irradiation) is listed as “pronounced fall in cell survival”. For the same compound, in the assay on UV-13-1 tumours (syngeneic model, 5 μg and 10 μg Compound 1 IT with saline), the “efficacy versus IP cisplatin alone” value is recorded as “more efficacious than IP cisplatin alone”. Also, in the assay with B16-F10-OVA tumours (saline/10 μg Compound 1 group), the tumours completely ablated is on record as 4/20.

Take `N.N.[Cl][Pt][Cl]` [cisplatin, reference compound]: the “Median Survival” value in the assay on SCC-15 tumours [2] (setting [10]) amounted to 11 days; with UV-13-1 tumours (setting [10]), 12 days.

Take `COc1cccc2c1C(=O)c1c(O)c3c(c(O)c1C2=O)C[C@@](O)(C(=O)CO)C[C@@H]3O[C@H]1C[C@H](N)[C@H](O)[C@H](C)O1` [doxorubicin, reference compound]: in the assay on LLC tumours (setting [11]), the “effect on tumour growth and survival” value is “minor effect on slowing tumour growth and prolonging survival”. Moreover, the “effect on tumour growth” value with B16-F10-OVA tumours (setting [11]) is “no effect on tumour growth”.
